Experimental findings from article PMC11580889 (bioRxiv, 2025) are described below.

Structures are written as SMILES.

In the experiment the target is PNKP (polynucleotide kinase 3'-phosphatase); purified recombinant PNKP (Homo sapiens, UniProt Q96T60). The experiment can be described thus: intrinsic tryptophan fluorescence quenching titration. Format: binding.

Regarding `O=P(O)(O)OC[C@H]1O[C@@](CO)(OP(=O)(O)O)[C@@H](O)[C@@H]1O` [F2,6BP], the Kd worked out at 525 ± 25 nM.

A word on the Kd: it is the free concentration of one partner at which half of the binding sites on the other are occupied at equilibrium, for simple one-to-one binding.
